From US5629430A, “Trifluoromethylpyrroloindolecarboxylic acid ester and process for production thereof” (Kyorin Pharmaceutical Co., Ltd., priority 1992, dated 1997)
In brackets after ≈: the same amount, converted by molar mass.

Experiments:
[1] = tested on: P388 mouse leukemia cells; experiment: Activity against tumor cell growth (P388, MTT, 72 h); format: cell-based; settings: Mus musculus, P388, 72 h, read-out: IC50 (50% growth inhibition concentration)
Outline: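 P388 cells at 1.5×10^5 cells/ml in RPMI1640 with 10% FBS, 2 mM glutamine and 5 μM 2-hydroxyethyldisulfide; DMSO-dissolved compound diluted in medium, 72 h at 37 °C, 5% CO2. MTT added for 3 h, formazan dissolved in HCl-isopropanol, A540 read. IC50 from absorbance ratio versus untreated cells.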

P388 cells = experiment: Antineoplastic activity, mice having P388 cells transplanted in abdominal cavity; format: in vivo, mouse (female, CDF1 strain); settings: i.p. 0.5 mg/kg single dose; two mice; Cured: Survived for 60 days or longer
Description: (§1) The test compound was dissolved in dimethylsulfoxide, and the solution was adequately diluted with 10% Emulfore EL620(produced by Rhone Poulenc Co.) to prepare the test compound solution. The antineoplastic activity was evaluated as below.
To the abdominal cavity of a female mouse (CDF1 strain, 8 to 9 week age), 1×10^6 P388 cells were transplanted. Next day, the test medicine solution was injected intraperitonealy in a single dose. Five to eight mice were employed for the solvent-dosed control group, and two mice were employed for each of the dosed groups. The antineoplastic effect was evaluated by the ratio (T/C, %) of the average survival days of the dosed group (T) to the average survival days of the solvent-dosed control group(C). The T/C ratio of 130% or more is evaluated to be effective.
"Cured": Survived for 60 days or longer

Sarcoma-180 cells = experiment: Antineoplastic activity, mice having Sarcoma-180 cells transplanted subcutaneously; format: in vivo, mouse (female, CDR strain); settings: Mus musculus, Sarcoma-180, iv, 144 h, read-out: T/C (average tumor weight, dosed vs. solvent-dosed control)
Outline: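 Female CDR mice, 5–6 weeks, implanted subcutaneously with 3.6×10^6 to 5×10^6 Sarcoma-180 cells; next day a single tail-vein dose of compound in DMSO diluted with 10% Emulfore EL620. Tumors excised and weighed six days post-dose; efficacy expressed as T/C ratio of mean tumor weights versus solvent controls.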

Colon-26 cells = experiment: Antineoplastic activity, mice having Colon-26 cells transplanted subcutaneously; format: in vivo, mouse (female, CDF1 strain); settings: Mus musculus, Colon 26, iv, 168 h, read-out: T/C (average tumor weight, dosed vs. solvent-dosed control)
Description: as §1
To the lateral region of a female mouse (CDF1 strain, 8 to 12 week age), 1×10^6 Colon-26 cells were transplanted subcutaneously. On the sixth day after the transplantation, the test medicine solution-was injected into the tail vein in a single dose. Seven to twelve mice were employed for the solvent-dosed control group, and five mice were employed for the dosed group. One week after the dosage, the tumor was cut out, and the weight thereof was measured. The antineoplastic effect was evaluated by the ratio (T/C) of the average tumor weight of the dosed group (T) to the average tumor weight of the solvent-dosed control group (C).

## COC(=O)c1c(C(F)(F)F)[nH]c2c(OC(=O)N3CCN(C)CC3)cc3c(c12)C(CBr)CN3C(=O)c1cc2cc(OC)c(OC)c(OC)c2[nH]1 (stereo not drawn) [Example 47, Methyl 1-bromomethyl-5-(4-methylpiperazin-1-ylcarbonyl)oxy-7-trifluoromethyl-3-(5,6,7-trimethoxy-1H-indol-2-ylcarbonyl)-1,2,3,6-tetrahydropyrrolo[3,2-e]indole-8-carboxylate]
[1]
  IC50: 0.031 µg/mL (≈ 0.0412 µM)
P388 cells
  T/C in words: cure (Survived for 60 days or longer): Both cured
Sarcoma-180 cells
  response vs control in vivo at 1 mg/kg: 19%
Colon-26 cells
  response vs control in vivo at 1 mg/kg: 7%

## COC(=O)c1c(C(F)(F)F)[nH]c2c(OC(=O)N3CCN(C)CC3)cc3c(c12)C(CCl)CN3C(=O)c1cc2cc(NC(=O)c3cc4ccccc4o3)ccc2[nH]1 (stereo not drawn) [Example 48]
[1]
  IC50: 0.08 µg/mL (≈ 0.103 µM)
P388 cells
  T/C in words: cure (Survived for 60 days or longer): Both cured
Sarcoma-180 cells
  response vs control in vivo at 1 mg/kg: 8%
Colon-26 cells
  response vs control in vivo at 1 mg/kg: 6%

## COC(=O)c1c(C(F)(F)F)[nH]c2c(OC(=O)N3CCN(C)CC3)cc3c(c12)C(CBr)CN3C(=O)c1cc2cc(NC(=O)c3cc4ccccc4o3)ccc2[nH]1 (stereo not drawn) [Example 49]
[1]
  IC50: 0.089 µg/mL (≈ 0.108 µM)
P388 cells
  T/C in words: cure (Survived for 60 days or longer): Both cured
Sarcoma-180 cells
  response vs control in vivo at 0.5 mg/kg: 12%
Colon-26 cells
  response vs control in vivo at 0.5 mg/kg: 9%
